In patent US9428499B2, “Heterocyclyl compounds as MEK inhibitors” (LUPIN LIMITED, priority 2012, dated 2016):

System: ERK phosphorylation
Test: Analysis of ERK phosphorylation (Alphascreen SureFire Phospho-ERK 1/2)
Format: cell-based, human and mouse
Conditions: cells treated for 1 h; human melanoma cells, human and mouse colon cancer cells; read-out: Minimum concentration (nM) required for ≧80% inhibition of pERK
Description: This assay was carried out with human melanoma cells, human and mouse colon cancer cells. Cells were treated for 1 h with various concentrations of test compounds. ERK phosphorylation analysis was performed using the Alphascreen SureFire Phospho-ERK 1/2 Kit (Perkin Elmer), by following the manufacturer's instructions. % inhibition of ERK phosphorylation was determined as: 100−{(RFU test−RFU lysis buffer control)/(RFU vehicle treated control−RFU lysis buffer control)}×100. Percentage inhibition at concentrations of 0.01 nM, 0.03 nM, 0.1-0.9 nM, 1 nM to 3 nM, 4-100 nM, and >100 nM, for the stated examples is setworth here. The percentage inhibition at the above depicted concentrations for the compounds stated are given in the following groups.

Compound	IC80
Cc1c(=O)n(C)c(Nc2ccc(I)cc2F)c2c(=O)n(C3CC3)c(=O)n(-c3cccc(CCC(=O)NC4CC4)c3)c12 [Compound 40, N-cyclopropyl-3-(3-(3-cyclopropyl-5-((2-fluoro-4-iodophenyl)amino)-6,8-dimethyl-2,4,7-trioxo-3,4,6,7-tetrahydropyrido[4,3-d]pyrimidin-1(2H)-yl)phenyl)propanamide]	4 to 100 nM
Cc1c(=O)n(C)c(Nc2ccc(I)cc2F)c2c(=O)n(C)c(=O)n(-c3cccc(CC(=O)N4CCC4)c3)c12 [Compound 46, 1-(3-(2-(azetidin-1-yl)-2-oxoethyl)phenyl)-5-((2-fluoro-4-iodophenyl)amino)-3,6,8-trimethylpyrido[4,3-d]pyrimidine-2,4,7(1H,3H,6H)-trione]	0.01 nM
Cc1c(=O)n(C)c(Nc2ccc(I)cc2F)c2c(=O)n(C)c(=O)n(-c3cccc(CC(=O)N(C)C)c3)c12 [Compound 44, 2-(3-(5-((2-fluoro-4-iodophenyl)amino)-3,6,8-trimethyl-2,4,7-trioxo-3,4,6,7-tetra hydropyrido[4,3-d]pyrimidin-1(2H)-yl)phenyl)-N,N-dimethylacetamide]	0.1 to 0.9 nM
Cc1c(=O)n(C)c(Nc2ccc(I)cc2F)c2c(=O)n(C)c(=O)n(-c3cccc(CCC(N)=O)c3)c12 [Compound 68, 3-(3-(5-((2-fluoro-4-iodophenyl)amino)-3,6,8-trimethyl-2,4,7-trioxo-3,4,6,7-tetrahydropyrido[4,3-d]pyrimidin-1(2H)-yl)phenyl)propanamide]	1 to 3 nM
Cc1c(=O)n(C)c(Nc2ccc(I)cc2F)c2c(=O)[nH]c(=O)n(-c3cccc(C(=O)N4CCNCC4)c3)c12 [Compound 23, 5-((2-fluoro-4-iodophenyl)amino)-6,8-dimethyl-1-(3-(piperazine-1-carbonyl)phenyl)pyrido[4,3-d]pyrimidine-2,4,7(1H,3H,6H)-trione]	4 to 100 nM
Cc1c(=O)n(C)c(Nc2ccc(I)cc2F)c2c(=O)[nH]c(=O)n(-c3cccc(CCC(N)=O)c3)c12 [Compound 1, 3-(3-(5-((2-fluoro-4-iodophenyl)amino)-6,8-dimethyl-2,4,7-trioxo-3,4,6,7-tetrahydropyrido[4,3-d]pyrimidin-1(2H)-yl)phenyl)propanamide]	1 to 3 nM
Cc1c(=O)n(C)c(Nc2ccc(I)cc2F)c2c(=O)n(C)c(=O)n(-c3cccc(CC(=O)NC4CC4)c3)c12 [Compound 58, N-cyclopropyl-2-(3-(5-((2-fluoro-4-iodophenyl)amino)-3,6,8-trimethyl-2,4,7-trioxo-3,4,6,7-tetrahydropyrido[4,3-d]pyrimidin-1(2H)-yl)phenyl)acetamide]	1 to 3 nM
Cc1c(=O)n(C)c(Nc2ccc(I)cc2F)c2c(=O)[nH]c(=O)n(-c3cccc(CC(=O)N(C)C)c3)c12 [Compound 10, 2-(3-(5-((2-fluoro-4-iodophenyl)amino)-6,8-dimethyl-2,4,7-trioxo-3,4,6,7-tetrahydropyrido[4,3-d]pyrimidin-1(2H)-yl)phenyl)-N,N-dimethylacetamide]	0.1 to 0.9 nM
Cc1c(=O)n(C)c(Nc2ccc(I)cc2F)c2c(=O)n(C)c(=O)n(-c3cccc(C(=O)NC4CCOCC4)c3)c12 [Compound 52, 3-(5-((2-fluoro-4-iodophenyl)amino)-3,6,8-trimethyl-2,4,7-trioxo-3,4,6,7-tetrahydropyrido[4,3-d]pyrimidin-1(2H)-yl)-N-(tetrahydro-2H-pyran-4-yl)benzamide]	4 to 100 nM
Cc1c(=O)n(C)c(Nc2ccc(I)cc2F)c2c(=O)n(C3CC3)c(=O)n(-c3cccc(CC(=O)N4CC(O)C4)c3)c12 [Compound 33, 3-cyclopropyl-5-((2-fluoro-4-iodophenyl)amino)-1-(3-(2-(3-hydroxyazetidin-1-yl)-2-oxoethyl)phenyl)-6,8-dimethylpyrido[4,3-d]pyrimidine-2,4,7(1H,3H,6H)-trione]	1 to 3 nM
Cc1c(=O)n(C)c(Nc2ccc(I)cc2F)c2c(=O)[nH]c(=O)n(-c3cccc(C(=O)N4CCS(=O)(=O)C4)c3)c12 [Compound 17, 1-(3-(1,1-dioxidothiazolidine-3-carbonyl)phenyl)-5-((2-fluoro-4-iodophenyl)amino)-6,8-dimethylpyrido[4,3-d]pyrimidine-2,4,7(1H,3H,6H)-trione]	0.1 to 0.9 nM
Cc1c(=O)n(C)c(Nc2ccc(I)cc2F)c2c(=O)n(C(F)F)c(=O)n(-c3cccc(C(=O)NC4CC4)c3)c12 [Compound 72, N-cyclopropyl-3-(3-(difluoromethyl)-5-((2-fluoro-4-iodophenyl)amino)-6,8-dimethyl-2,4,7-trioxo-3,4,6,7-tetrahydropyrido[4,3-d]pyrimidin-1(2H)-yl)benzamide]	4 to 100 nM
Cc1c(=O)n(C)c(Nc2ccc(I)cc2F)c2c(=O)n(C3CC3)c(=O)n(-c3cccc(CCC(N)=O)c3)c12 [Compound 34, 3-(3-(3-cyclopropyl-5-((2-fluoro-4-iodophenyl)amino)-6,8-dimethyl-2,4,7-trioxo-3,4,6,7-tetrahydropyrido[4,3-d]pyrimidin-1(2H)-yl)phenyl)propanamide]	1 to 3 nM
Cc1c(=O)n(C)c(Nc2ccc(I)cc2F)c2c(=O)n(C3CC3)c(=O)n(-c3cccc(CC(=O)NC4COC4)c3)c12 [Compound 31, 2-(3-(3-cyclopropyl-5-((2-fluoro-4-iodophenyl)amino)-6,8-dimethyl-2,4,7-trioxo-3,4,6,7-tetrahydropyrido[4,3-d]pyrimidin-1(2H)-yl)phenyl)-N-(oxetan-3-yl)acetamide]	0.01 nM
Cc1c(Nc2ccc(I)cc2F)c2c(=O)n(C3CC3)c(=O)n(-c3cccc(C(F)(F)C(N)=O)c3)c2n(C)c1=O [Compound 30, 2-(3-(3-cyclopropyl-5-((2-fluoro-4-iodophenyl)amino)-6,8-dimethyl-2,4,7-trioxo-3,4,7,8-tetrahydropyrido[2,3-d]pyrimidin-1(2H)-yl)phenyl)-2,2-difluoroacetamide]	1 to 3 nM
Cc1c(=O)n(C)c(Nc2ccc(I)cc2F)c2c(=O)n(C3COC3)c(=O)n(-c3cccc(OCC(N)=O)c3)c12 [Compound 71, 2-(3-(5-((2-fluoro-4-iodophenyl)amino)-6,8-dimethyl-3-(oxetan-3-yl)-2,4,7-trioxo-3,4,6,7-tetrahydropyrido[4,3-d]pyrimidin-1(2H)-yl)phenoxy)acetamide]	4 to 100 nM
Cc1c(=O)n(C)c(Nc2ccc(I)cc2F)c2c(=O)[nH]c(=O)n(-c3cccc(C(O)C(N)=O)c3)c12 (stereo not shown) [Compound 14, 2-(3-(5-((2-fluoro-4-iodophenyl)amino)-6,8-dimethyl-2,4,7-trioxo-3,4,6,7-tetrahydropyrido[4,3-d]pyrimidin-1(2H)-yl)phenyl)-2-hydroxyacetamide]	4 to 100 nM
Cc1c(=O)n(C)c(Nc2ccc(I)cc2F)c2c(=O)[nH]c(=O)n(-c3cccc(C(=O)N4CCS(=O)(=O)CC4)c3)c12 [Compound 8, 1-(3-(1,1-dioxidothiomorpholine-4-carbonyl)phenyl)-5-((2-fluoro-4-iodophenyl)amino)-6,8-dimethylpyrido[4,3-d]pyrimidine-2,4,7(1H,3H,6H)-trione]	1 to 3 nM
Cc1c(=O)n(C)c(Nc2ccc(I)cc2F)c2c(=O)n(C3CC3)c(=O)n(-c3cccc(C(=O)N4CCS(=O)(=O)C4)c3)c12 [Compound 38, 3-cyclopropyl-1-(3-(1,1-dioxidothiazolidine-3-carbonyl)phenyl)-5-((2-fluoro-4-iodophenyl)amino)-6,8-dimethylpyrido[4,3-d]pyrimidine-2,4,7(1H,3H,6H)-trione]	0.1 to 0.9 nM
Cc1c(=O)n(C)c(Nc2ccc(I)cc2F)c2c(=O)n(C(C)C)c(=O)n(-c3cccc(C(=O)NC4CC4)c3)c12 [Compound 69, N-cyclopropyl-3-(5-((2-fluoro-4-iodophenyl)amino)-3-isopropyl-6,8-dimethyl-2,4,7-trioxo-3,4,6,7-tetrahydropyrido[4,3-d]pyrimidin-1(2H)-yl)benzamide]	> 100 nM
Cc1c(=O)n(C)c(Nc2ccc(I)cc2F)c2c(=O)n(CC(=O)O)c(=O)n(-c3cccc(C(=O)NC4CC4)c3)c12 [Compound 74, 2-(1-(3-(cyclopropylcarbamoyl)phenyl)-5-((2-fluoro-4-iodophenyl)amino)-6,8-dimethyl-2,4,7-trioxo-1,2,6,7-tetrahydropyrido[4,3-d]pyrimidin-3(4H)-yl)acetic acid]	> 100 nM
Cc1c(=O)n(C)c(Nc2ccc(I)cc2F)c2c(=O)n(C3CC3)c(=O)n(-c3cccc(CC(N)=O)c3)c12 [Compound 26, 2-(3-(3-cyclopropyl-5-((2-fluoro-4-iodophenyl)amino)-6,8-dimethyl-2,4,7-trioxo-3,4,6,7-tetrahydropyrido[4,3-d]pyrimidin-1(2H)-yl)phenyl)acetamide]	4 to 100 nM
Cc1c(=O)n(C)c(Nc2ccc(I)cc2F)c2c(=O)[nH]c(=O)n(-c3cccc(C(C)(C)C(N)=O)c3)c12 [Compound 9, 2-(3-(5-((2-fluoro-4-iodophenyl)amino)-6,8-dimethyl-2,4,7-trioxo-3,4,6,7-tetrahydropyrido[4,3-d]pyrimidin-1(2H)-yl)phenyl)-2-methylpropanamide]	0.1 to 0.9 nM
CNC(=O)CCc1cccc(-n2c(=O)n(C3CC3)c(=O)c3c(Nc4ccc(I)cc4F)n(C)c(=O)c(C)c32)c1 [Compound 36, 3-(3-(3-cyclopropyl-5-((2-fluoro-4-iodophenyl)amino)-6,8-dimethyl-2,4,7-trioxo-3,4,6,7-tetrahydropyrido[4,3-d]pyrimidin-1(2H)-yl)phenyl)-N-methylpropanamide]	1 to 3 nM
CCn1c(=O)c2c(Nc3ccc(I)cc3F)n(C)c(=O)c(C)c2n(-c2cccc(CC(=O)NC3CC3)c2)c1=O [Compound 59, N-cyclopropyl-2-(3-(3-ethyl-5-((2-fluoro-4-iodophenyl)amino)-6,8-dimethyl-2,4,7-trioxo-3,4,6,7-tetrahydropyrido[4,3-d]pyrimidin-1(2H)-yl)phenyl)acetamide]	1 to 3 nM
